Measured values reported in PMC3989846 (Malaria Journal, 2014).

Legend:
[1] = tested on: P. berghei ANKA blood stage parasitaemia; assay: Blood stage infection by flow cytometry (FCM) and causal prophylaxis outcome after sporozoite challenge; type: in vivo, Plasmodium berghei; conditions: for Effects: CP = causal prophylaxis; for Blood Infection by FCM: infected/challenged mice
Method: Novel and control anti-malarials were administered orally on days -1, 0, and 1 with respect to sporozoite inoculation. […] Additionally, blood stage infections were measured by flow cytometry. Positive and negative controls were used for the IVIS calibration in each test.
(§1) Causal prophylactic effects and delay in onset of parasitaemia in animals treated with TQ and PQ (Figure 1) were assessed in these experiments, which included a positive control, 4-methyl-PQ. All dosing was conducted based on the body weight at the time of preparation of the dosing solution. […] Each animal received 0.1 - 0.2 ml of the oral solutions, delivered via an intragastric feeder (18-gauge) to the designated recipient. Stock solutions of test compounds were prepared fresh daily by grinding the needed amount of drug in cold (4°C) 0.5% (w/v) hydroxyethyl cellulose and 0.2% (v/v) Tween-80 (0.5% HECT) and diluting the resulting solution at variable concentrations. C57BL/6 albino mice were challenged intravenously with 50,000 luciferase-expressing P. berghei sporozoites extracted from the salivary glands of heavily infected An. stephensi mosquitoes. […] At day 5–30 after infection, the same mice were analysed for blood stage infection by determination of the course of parasitaemia of tail blood by flow cytometry using an FC500 flow cytometer (Beckman-Coulter Co. CA).
At day 5–30 after infection, the same mice were analysed for blood stage infections by quantitation of malaria parasites by flow cytometry (FCM). All FCM analyses were carried out with a FC500 MPL flow cytometer (Beckman Coulter, Fullerton, CA), which conducts five-colour analysis from either single or dual laser excitation. Infected erythrocytes, uninfected erythrocytes, and leukocytes were gated on logarithmic forward/side dot plots. Cells were analysed at an average rate of 2,000-3,000 erythrocytes/s. Filters were placed before the green (FL-1) and red (FL-2) photomultiplier tubes (PMTs) such that the green PMT registered fluorescence emission between 520 and 555 nm, and the red PMT measured emission greater than 580 nm.
A drop of blood (3 μL) from the mouse tail was collected directly into 0.3 ml of 1% heparinized isotonic buffer (PBS saline). In this study, 1 ml 0.04% of glutaraldehyde was used for fixation and the samples were then incubated at 4°C for 60 minutes. The cells were centrifuged at 450 × g for 5 min. […] After centrifugation, the permeabilized cells were re-suspended in 0.5 ml of RNAse at 1 mg/ml concentrations and incubated for at least 2 hours at 37°C to ensure complete digestion of reticulocytes. Plasmodium berghei infection in mice results in anaemia which then results in reticulocytosis. Therefore, high RNAse concentrations for digesting large amounts of reticulocytes RNA were required for assessment of parasitaemia in this mouse model.
In the in vivo imaging experiments, causal prophylaxis activity, sporontocidal activity, parasite clearance, causal cure, delays in patency, and time to recrudescence were calculated as described previously. The minimum curative dose (MCD100) in 100% animals was defined as the lowest dose, which cured all animals (>5 animals) in a group at any time during the first 30 days of the follow-up period. […] Means and standard deviations of photon measurement were calculated. Blood stage infection was defined as two positive blood samples by flow cytometry, taken daily apart. The negative blood samples were monitored until day 15 after inoculation. Coefficients of variation were calculated as a percentage by dividing the standard deviation by the mean value.

[2] = tested on: luciferase-expressing P. berghei ANKA sporozoites; assay: Real time in vivo imaging (IVIS) of liver-stage luminescence in sporozoite-infected mice; design: species or system Plasmodium berghei; conditions: for Suppression rate (%) IVIS 24 h: 24 h post infection; for Suppression rate (%) IVIS 48 h: 48 h post infection; for Suppression rate (%) IVIS 72 h: 72 h post infection
Text: Luciferase-expressing P. berghei ANKA sporozoites were obtained from laboratory-reared female An. stephensi mosquitoes from the Department of Mosquito Biology, WRAIR. […] Salivary glands were extracted from malaria-infected mosquitoes and kept on ice in RPMI medium with 1% mouse serum. Sporozoites will be recovered by the method of Ozaki, and quantitated using a haemocytometer. Sporozoites isolated from the same batch of mosquitoes will be inoculated into C57BL/6 albino mice on the same day to control for biological variability in sporozoite preparations. Each C57BL/6 mouse will be inoculated intravenously in the tail vein with approximately 50,000 sporozoites suspended in 0.1 mL volume on day 0. To ensure that inoculated sporozoites are viable following the isolation procedure, they will be stained with a vital dye containing fluorescein diacetate (50 mg/mL in acetone) and ethidium bromide (20 μg/mL in phosphate-buffered saline; Sigma Chemical Co., St. Louis, Mo.) and counted in a haemocytometer.
[…] […] Additionally, blood stage infections were measured by flow cytometry. Positive and negative controls were used for the IVIS calibration in each test.
as §1
In vivo imaging studies of bioluminescence activity from luciferase expressing P. berghei infected mice were performed using a Perkin Elmer IVIS Spectrum (Hanover, MD). […] Three minutes post luciferin administration the mice were anesthetized with inhaled isoflurane. The mice were then positioned ventral side up in the IVIS on a 37°C platform. The mice continue to receive isoflurane through nose cone delivery. The camera exposure times utilized were 1 and 5 minutes for the 24, 48, and 72 hour time points with f-stop = 1 and large binning setting. Quantitative analysis of bioluminescence emitted from whole bodies or region of intensity (ROI) were determined by measuring the luminescence signal intensity in photons/second using the ROI settings of the Living Image® 3.0 software. The ROI, which measurements were expressed in total flux of photons, was set to measure the abdominal area at the location of the liver from whole body imaging.
In the in vivo imaging experiments, causal prophylaxis activity, sporontocidal activity, parasite clearance, causal cure, delays in patency, and time to recrudescence were calculated as described previously. The minimum curative dose (MCD100) in 100% animals was defined as the lowest dose, which cured all animals (>5 animals) in a group at any time during the first 30 days of the follow-up period.

[3] = design: method as in PMID 9598455; conditions: cited from earlier work
[4] = 5 mg/kg oral, 3 days (-1, 0, 1)
[5] = 10 mg/kg oral, 3 days (-1, 0, 1)
[6] = 15 mg/kg oral, 3 days (-1, 0, 1)
[7] = 20 mg/kg oral, 3 days (-1, 0, 1)
[8] = 25 mg/kg oral, 3 days (-1, 0, 1)
[9] = 25 mg/kg single oral dose on day 0
[10] = 25 mg/kg single oral dose on day -1
[11] = 1.25 mg/kg oral, 3 days (-1, 0, 1)
[12] = 5 mg/kg single oral dose on day 0
[13] = 5 mg/kg single oral dose on day -1

In the case of `COc1cc(NC(C)CCCN)c2ncccc2c1` (stereo not shown) [Primaquine, primaquine], the Effects [1, 4] is reported as “Suppression”, the “Blood Infection by FCM” value [1, 4] is reported as 5/5 and the Effects [1, 5] is reported as “Partial CP”. For the same compound, the “Blood Infection by FCM” value [1, 5] was 5/10, the Effects [1, 6] was “Partial CP” and the “Blood Infection by FCM” value [1, 6] was 4/20. For the same compound, the Effects [1, 7] was “Partial CP”, the “Blood Infection by FCM” value [1, 7] was 1/10 and the “Delay in patency (days after onset in controls)” value ([1]; 20 mg/kg oral, 3 days (-1, 0, 1), per infected mouse) was 6 days. The Effects [1, 8] was “Full CP”, the “Blood Infection by FCM” value [1, 8] was 0/10 and the Effects [1, 9] was “Suppression”. For the same compound, the “Blood Infection by FCM” value [1, 9] was 5/5, the Effects [1, 10] was “Suppression” and the “Blood Infection by FCM” value [1, 10] was 5/5. The “blood stage parasitaemia 5–30 days after infection” value ([1]; single oral dose 25 mg/kg) was “severe parasitaemia”, the “Suppression rate (%) IVIS 24 h” value [2, 4] was 82.4% and the “Suppression rate (%) IVIS 48 h” value [2, 4] was 77.5%. For the same compound, the “Suppression rate (%) IVIS 72 h” value [2, 4] was 89.4%, the “Suppression rate (%) IVIS 24 h” value [2, 5] was 100% and the “Suppression rate (%) IVIS 48 h” value [2, 5] was 97.6%. For the same compound, the “Suppression rate (%) IVIS 72 h” value [2, 5] was 100%, the “low level of luminescence” value ([2]; 10 mg/kg x 3 days, 5 of 10 animals, 48 hours) was 0.66 × 10^5 photons/sec and the “Suppression rate (%) IVIS 24 h” value [2, 6] was 100%. The “Suppression rate (%) IVIS 48 h” value [2, 6] was 100%, the “Suppression rate (%) IVIS 72 h” value [2, 6] was 100% and the “Suppression rate (%) IVIS 24 h” value [2, 7] was 100%. For the same compound, the “Suppression rate (%) IVIS 48 h” value [2, 7] was 100%, the “Suppression rate (%) IVIS 72 h” value [2, 7] was 100% and the “Suppression rate (%) IVIS 24 h” value [2, 8] was 100%. For the same compound, the “Suppression rate (%) IVIS 48 h” value [2, 8] was 100%, the “Suppression rate (%) IVIS 72 h” value [2, 8] was 100% and the “Suppression rate (%) IVIS 24 h” value [2, 9] was 11.2%. For the same compound, the “Suppression rate (%) IVIS 48 h” value [2, 9] was 0%, the “Suppression rate (%) IVIS 72 h” value [2, 9] was 0% and the “Suppression rate (%) IVIS 24 h” value [2, 10] was 45.7%. The “Suppression rate (%) IVIS 48 h” value [2, 10] was 0%, the “Suppression rate (%) IVIS 72 h” value [2, 10] was 0% and the “liver luminescence after 24 hours” value ([2]; single oral dose 25 mg/kg) was “high levels of luminescence and no suppression of signal”. The “dose excreted as unchanged drug in the urine” value [3] was “less than 1%”.
In the case of `COc1cc(C)c2c(Oc3cccc(C(F)(F)F)c3)c(OC)cc(NC(C)CCCN)c2n1` (stereo not shown) [Tafenoquine, tafenoquine], the “Number of C57BL/albino mice Causal prophylaxis” value [1, 11] is reported as 1/5, the “Number of C57BL/albino mice Protected completely” value [1, 11] is reported as 1 and the Effects [1, 11] is reported as “Suppression”. The “Blood Infection by FCM” value [1, 11] was 4/5, the “Number of C57BL/albino mice Causal prophylaxis” value [1, 4] was 13/13 and the “Number of C57BL/albino mice Protected completely” value [1, 4] was 13. For the same compound, the Effects [1, 4] was “Full CP”, the “Blood Infection by FCM” value [1, 4] was 0/13 and the “Number of C57BL/albino mice Causal prophylaxis” value [1, 12] was 1/5. For the same compound, the “Number of C57BL/albino mice Protected completely” value [1, 12] was 1, the Effects [1, 12] was “Partial CP” and the “Blood Infection by FCM” value [1, 12] was 4/5. For the same compound, the “Number of C57BL/albino mice Causal prophylaxis” value [1, 13] was 10/10, the “Number of C57BL/albino mice Protected completely” value [1, 13] was 10 and the Effects [1, 13] was “Full CP”. The “Blood Infection by FCM” value [1, 13] was 0/10, the “Blood Infection by FCM” value ([1]; 5 mg/kg single oral dose on day -1, listed as TQ) was “no blood stage parasitaemia” and the “Number of C57BL/albino mice Causal prophylaxis” value [1, 5] was 5/5. For the same compound, the “Number of C57BL/albino mice Protected completely” value [1, 5] was 5, the Effects [1, 5] was “Full CP” and the “Blood Infection by FCM” value [1, 5] was 0/5. The “Number of C57BL/albino mice Causal prophylaxis” value ([1]; […] oral, 3 days (-1, 0, 1)) was 3/5, the “Number of C57BL/albino mice Protected completely” value ([1]; […] oral, 3 days (-1, 0, 1)) was 3 and the “minimal curative single oral dose” value ([1]; single oral dose, causal prophylaxis in mice) was 5 mg/kg. The causal activity ([1]; three oral doses: TQ 5 mg/kg, PQ 25 mg/kg) was 100%, the “Suppression rate (%) IVIS 24 h” value [2, 11] was 84.7% and the “Suppression rate (%) IVIS 48 h” value [2, 11] was 92.3%. The “Suppression rate (%) IVIS 72 h” value [2, 11] was 98.9%, the “Suppression rate (%) IVIS 48 h” value [2, 4] was 100% and the “Suppression rate (%) IVIS 72 h” value [2, 4] was 100%. The “Suppression rate (%) IVIS 24 h” value [2, 12] was 66.0%, the “Suppression rate (%) IVIS 48 h” value [2, 12] was 91.1% and the “Suppression rate (%) IVIS 72 h” value [2, 12] was 98.5%. For the same compound, the “Suppression rate (%) IVIS 24 h” value [2, 13] was 68.7%, the “Suppression rate (%) IVIS 48 h” value [2, 13] was 98.6% and the “Suppression rate (%) IVIS 72 h” value [2, 13] was 100%. The “Suppression rate (%) IVIS 24 h” value [2, 5] was 100%, the “Suppression rate (%) IVIS 48 h” value [2, 5] was 100% and the “Suppression rate (%) IVIS 72 h” value [2, 5] was 100%.
